AC50 data for two compounds are collected here from ChEMBL document CHEMBL5291721, “A preclinical secondary pharmacology resource illuminates target-adverse drug reaction associations of marketed drugs” (Nat Commun, 2023).

The target in test [1] is T1, Alpha-2A adrenergic receptor (Homo sapiens, UniProt P08913).
T1 sequence (P08913 whole entry): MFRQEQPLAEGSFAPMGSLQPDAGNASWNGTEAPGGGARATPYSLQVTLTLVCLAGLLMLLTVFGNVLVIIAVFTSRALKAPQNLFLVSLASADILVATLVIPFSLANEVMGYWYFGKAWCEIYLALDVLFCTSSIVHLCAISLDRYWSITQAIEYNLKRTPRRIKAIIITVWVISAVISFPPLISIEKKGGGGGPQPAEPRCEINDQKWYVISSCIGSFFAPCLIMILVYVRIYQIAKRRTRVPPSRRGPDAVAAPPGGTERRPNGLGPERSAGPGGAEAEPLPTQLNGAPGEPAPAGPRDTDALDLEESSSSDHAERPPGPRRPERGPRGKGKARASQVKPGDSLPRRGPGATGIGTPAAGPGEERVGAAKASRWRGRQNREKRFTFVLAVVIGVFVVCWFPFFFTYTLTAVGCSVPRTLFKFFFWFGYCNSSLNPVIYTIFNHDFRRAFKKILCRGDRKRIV

Test [2] deals with T2, Endothelin receptor type B (Homo sapiens, UniProt P24530).
T2 sequence (P24530 whole entry): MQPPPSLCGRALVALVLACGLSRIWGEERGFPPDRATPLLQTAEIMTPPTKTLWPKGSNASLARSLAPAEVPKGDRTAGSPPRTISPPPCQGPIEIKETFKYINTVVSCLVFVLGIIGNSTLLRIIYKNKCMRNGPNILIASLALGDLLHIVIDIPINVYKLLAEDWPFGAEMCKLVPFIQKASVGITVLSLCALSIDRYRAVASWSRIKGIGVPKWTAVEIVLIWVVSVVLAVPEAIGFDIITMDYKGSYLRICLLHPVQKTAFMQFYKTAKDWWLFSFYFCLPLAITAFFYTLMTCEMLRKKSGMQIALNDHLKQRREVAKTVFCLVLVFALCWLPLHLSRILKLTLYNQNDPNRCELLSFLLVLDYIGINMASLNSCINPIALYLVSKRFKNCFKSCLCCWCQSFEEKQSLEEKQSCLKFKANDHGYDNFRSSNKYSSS

Test [3] deals with T3, Muscarinic acetylcholine receptor M2 (Homo sapiens, UniProt P08172).
T3 sequence (P08172 whole entry): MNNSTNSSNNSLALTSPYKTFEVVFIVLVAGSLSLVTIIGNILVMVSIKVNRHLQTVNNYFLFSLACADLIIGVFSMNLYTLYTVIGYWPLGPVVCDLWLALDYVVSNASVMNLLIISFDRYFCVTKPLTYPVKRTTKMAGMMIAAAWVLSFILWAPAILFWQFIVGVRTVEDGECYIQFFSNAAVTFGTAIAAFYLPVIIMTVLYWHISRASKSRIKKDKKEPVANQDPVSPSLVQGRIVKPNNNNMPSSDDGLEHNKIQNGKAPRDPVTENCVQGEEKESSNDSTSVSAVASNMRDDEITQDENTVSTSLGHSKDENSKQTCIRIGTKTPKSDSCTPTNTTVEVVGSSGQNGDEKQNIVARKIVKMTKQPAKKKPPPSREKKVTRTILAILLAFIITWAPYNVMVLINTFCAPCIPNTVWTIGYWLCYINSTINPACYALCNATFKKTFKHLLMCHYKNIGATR

The target of test [4] is 5-hydroxytryptamine receptor 2B (Homo sapiens, UniProt P41595).
A further test concerns the target Estrogen receptor beta (Homo sapiens, UniProt Q92731).
Test [5] deals with T4, Gastric inhibitory polypeptide receptor (Homo sapiens, UniProt P48546).
T4 sequence (P48546 whole entry): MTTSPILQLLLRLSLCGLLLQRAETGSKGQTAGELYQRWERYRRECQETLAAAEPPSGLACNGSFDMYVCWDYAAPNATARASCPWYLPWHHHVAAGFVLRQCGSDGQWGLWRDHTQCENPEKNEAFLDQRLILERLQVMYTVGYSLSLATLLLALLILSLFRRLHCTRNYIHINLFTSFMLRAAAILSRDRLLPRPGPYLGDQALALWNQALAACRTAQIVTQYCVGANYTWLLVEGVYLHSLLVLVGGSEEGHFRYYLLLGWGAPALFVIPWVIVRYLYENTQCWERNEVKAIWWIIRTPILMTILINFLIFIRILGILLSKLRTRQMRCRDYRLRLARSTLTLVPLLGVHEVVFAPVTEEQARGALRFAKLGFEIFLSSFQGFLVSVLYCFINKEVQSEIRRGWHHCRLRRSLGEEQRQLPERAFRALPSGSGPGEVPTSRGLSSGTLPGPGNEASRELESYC

The term AC50 denotes the concentration at which the activity in the assay is half-maximal. A lower AC50 goes with activity at low concentration.

Where only a bound is given, the exact number is not on record here.
Note: assay procedure not described here.

5-hydroxytryptamine receptor 2B, sequence (P41595 whole entry): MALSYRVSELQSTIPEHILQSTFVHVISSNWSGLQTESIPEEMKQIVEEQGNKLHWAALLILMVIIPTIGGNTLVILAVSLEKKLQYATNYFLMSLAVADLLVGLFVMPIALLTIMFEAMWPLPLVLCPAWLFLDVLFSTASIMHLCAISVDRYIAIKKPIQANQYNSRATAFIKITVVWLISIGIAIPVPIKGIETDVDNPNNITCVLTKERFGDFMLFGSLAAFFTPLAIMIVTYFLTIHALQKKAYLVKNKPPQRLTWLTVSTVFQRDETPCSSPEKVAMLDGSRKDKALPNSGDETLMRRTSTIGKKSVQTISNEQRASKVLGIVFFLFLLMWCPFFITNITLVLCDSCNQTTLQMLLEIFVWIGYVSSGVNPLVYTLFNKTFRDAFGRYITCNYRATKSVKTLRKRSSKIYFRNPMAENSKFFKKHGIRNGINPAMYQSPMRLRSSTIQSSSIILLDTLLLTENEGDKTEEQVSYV
Estrogen receptor beta, sequence (Q92731 whole entry): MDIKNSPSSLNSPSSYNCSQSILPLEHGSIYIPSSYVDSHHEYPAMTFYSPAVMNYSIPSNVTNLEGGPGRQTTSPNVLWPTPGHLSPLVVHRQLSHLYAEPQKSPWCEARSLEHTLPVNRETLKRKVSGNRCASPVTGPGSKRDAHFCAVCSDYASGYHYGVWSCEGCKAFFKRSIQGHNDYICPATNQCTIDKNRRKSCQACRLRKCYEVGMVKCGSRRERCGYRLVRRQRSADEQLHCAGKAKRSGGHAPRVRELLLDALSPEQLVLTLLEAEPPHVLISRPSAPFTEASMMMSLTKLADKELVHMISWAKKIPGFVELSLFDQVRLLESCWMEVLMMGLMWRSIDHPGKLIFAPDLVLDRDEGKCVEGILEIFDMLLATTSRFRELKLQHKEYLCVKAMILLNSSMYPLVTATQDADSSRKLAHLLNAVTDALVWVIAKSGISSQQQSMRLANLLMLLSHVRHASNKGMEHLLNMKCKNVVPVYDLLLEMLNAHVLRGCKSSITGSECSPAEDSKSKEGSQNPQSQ

Consider `CCOC(=O)C1=C(C)NC(C)=C(C(=O)OC)C1c1cccc([N+](=O)[O-])c1` (configuration not stated) [NITRENDIPINE], for which the AC50 is over 10 µM in test [1]; over 30 µM in test [2]; over 10 µM in test [3]; over 10 µM in test [4]; over 30 µM on Estrogen receptor beta; over 30 µM in test [5].

Take `[H]/N=C(/N)N/C(=N/[H])NCCc1ccccc1` [PHENFORMIN]: the AC50 in test [1] was 6.71 µM; in test [2], over 30 µM; in test [3] it was over 10 µM; in test [4] it was 8.9 µM; on Estrogen receptor beta, over 30 µM; in test [5], over 30 µM.
